Assay results as given in the supplement of paper PMC10307832.

How the values were obtained:
Assay in all cases: relative viability (nuclei count vs DMSO), 5 days (fraction); higher = more cells survive
[1] = compound: CCc1cnn2c(NCc3ccc[n+]([O-])c3)cc(N3CCCC[C@H]3CCO)nc12 [Dinaciclib] + Cc1cc(Nc2cc(N3CCN(C)CC3)nc(Sc3ccc(NC(=O)C4CC4)cc3)n2)n[nH]1 [Tozasertib] (partner 0.1 µM)
Method in brief: (§1)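 Lung cancer cell lines were pin-tool dosed in 1536-well plates on the day after seeding, with either a lone drug or a fixed anchor-drug dose plus five library-drug doses (not always all listed) in √10 steps. Nuclei were counted on 4× images after 5 days. Relative viability is the ratio of treated-well to vehicle-well nuclei counts, with each value a median of duplicate plates.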

[2] = compound: CCc1cnn2c(NCc3ccc[n+]([O-])c3)cc(N3CCCC[C@H]3CCO)nc12 [Dinaciclib] + CC(C)C[C@H](NC(=O)[C@H](Cc1ccccc1)NC(=O)c1cnccn1)B(O)O [Bortezomib] (partner 0.002 µM)
Method in brief: as §1

[3] = compound: CCc1cnn2c(NCc3ccc[n+]([O-])c3)cc(N3CCCC[C@H]3CCO)nc12 [Dinaciclib] + Nc1nc2[nH]cc(CCc3ccc(C(=O)N[C@@H](CCC(=O)O)C(=O)O)cc3)c2c(=O)[nH]1 [Pemetrexed] (partner 0.2 µM)
Method in brief: as §1

[4] = compound: CCc1cnn2c(NCc3ccc[n+]([O-])c3)cc(N3CCCC[C@H]3CCO)nc12 [Dinaciclib] + COc1cccc2cc(-c3nc([C@H]4CC[C@H](C(=O)O)CC4)n4ncnc(N)c34)[nH]c12 [OSI-027] (partner 0.5 µM)
Method in brief: as §1

[5] = compound: CCc1cnn2c(NCc3ccc[n+]([O-])c3)cc(N3CCCC[C@H]3CCO)nc12 [Dinaciclib] + CC(=O)c1c(C)c2cnc(Nc3ccc(N4CCNCC4)cn3)nc2n(C2CCCC2)c1=O [Palbociclib] (partner 0.5 µM)
Method in brief: as §1

Cell Line | relative viability ([1]; first compound 0.009487 µM) | relative viability ([1]; first compound 0.03 µM) | relative viability ([1]; first compound 0.09487 µM) | relative viability ([1]; first compound 0.3 µM) | relative viability ([2]; first compound 0.009487 µM) | relative viability ([2]; first compound 0.03 µM) | relative viability ([2]; first compound 0.09487 µM) | relative viability ([2]; first compound 0.3 µM) | relative viability ([3]; first compound 0.009487 µM) | relative viability ([3]; first compound 0.03 µM) | relative viability ([3]; first compound 0.09487 µM) | relative viability ([3]; first compound 0.3 µM) | relative viability ([4]; first compound 0.009487 µM) | relative viability ([4]; first compound 0.03 µM) | relative viability ([4]; first compound 0.09487 µM) | relative viability ([4]; first compound 0.3 µM) | relative viability ([5]; first compound 0.009487 µM) | relative viability ([5]; first compound 0.03 µM) | relative viability ([5]; first compound 0.09487 µM) | relative viability ([5]; first compound 0.3 µM)
NCI-H838 | 0.292 | 0.164 | 0.0965 | 0.0959 | 0.231 | 0.104 | 0.0725 | 0.127 | 0.262 | 0.13 | 0.12 | 0.0879 | 0.436 | 0.219 | 0.0977 | 0.0933 | 0.224 | 0.143 | 0.0896 | 0.0812
NCI-H3122 | 0.169 | 0.091 | 0.0926 | 0.0829 | 1 | 0.195 | 0.139 | 0.151 | 0.245 | 0.106 | 0.0981 | 0.0956 | 0.407 | 0.108 | 0.0984 | 0.114 | 0.175 | 0.108 | 0.0876 | 0.0895
SK-MES-1 | 0.777 | 0.157 | 0.156 | 0.139 |  |  |  |  | 0.799 | 0.192 | 0.179 | 0.168 | 0.559 | 0.13 | 0.136 | 0.149 | 0.327 | 0.179 | 0.18 | 0.154
NCI-H1944 | 0.233 | 0.134 | 0.132 | 0.127 |  |  |  |  | 0.712 | 0.119 | 0.14 | 0.136 | 0.413 | 0.156 | 0.139 | 0.141 | 0.39 | 0.13 | 0.147 | 0.123
LK-2 | 0.2 | 0.154 | 0.151 | 0.168 |  |  |  |  | 0.38 | 0.0867 | 0.0811 | 0.0749 | 0.218 | 0.196 | 0.16 | 0.131 | 0.543 | 0.109 | 0.107 | 0.0837
PC-3 [JPC-3] | 0.889 | 0.745 | 0.274 | 0.215 | 0.679 | 0.791 | 0.226 | 0.231 | 1.12 | 0.53 | 0.289 | 0.285 | 0.764 | 0.693 | 0.249 | 0.209 | 0.535 | 0.489 | 0.365 | 0.29
COR-L23 | 0.214 | 0.0848 | 0.0671 | 0.0704 | 0.646 | 0.0952 | 0.0792 | 0.0558 | 0.184 | 0.21 | 0.112 | 0.093 | 0.608 | 0.0953 | 0.0761 | 0.0902 | 0.222 | 0.0905 | 0.0689 | 0.0651
NCI-H1355 | 0.677 | 0.292 | 0.161 | 0.181 | 1.16 | 1.1 | 0.223 | 0.152 | 1.04 | 0.976 | 0.449 | 0.116 | 0.435 | 0.212 | 0.159 | 0.151 | 0.425 | 0.311 | 0.154 | 0.137
NCI-H460 | 0.489 | 0.0458 | 0.015 | 0.0209 | 0.591 | 0.013 | 0.0102 | 0.0119 | 0.0617 | 0.0567 | 0.0208 | 0.017 | 0.392 | 0.0364 | 0.0185 | 0.0206 | 0.0704 | 0.0127 | 0.0174 | 0.0151
NCI-H1993 | 0.505 | 0.623 | 0.595 | 0.565 | 1.18 | 0.551 |  | 0.61 | 0.592 | 0.452 | 0.484 | 0.427 | 0.538 | 0.57 | 0.625 | 0.6 | 0.602 | 0.36 | 0.506 | 0.433
ChaGo-K-1 | 0.22 | 0.168 | 0.132 | 0.111 | 0.637 | 0.222 | 0.178 | 0.187 | 0.257 | 0.216 | 0.149 | 0.119 | 0.499 | 0.186 | 0.128 | 0.119 | 0.971 | 0.239 | 0.118 | 0.114
HCC-15 | 0.407 | 0.0586 | 0.0549 | 0.0646 | 0.628 | 0.106 | 0.0945 | 0.0993 | 0.217 | 0.122 | 0.128 | 0.125 | 0.596 | 0.113 | 0.0869 | 0.107 | 0.673 | 0.292 | 0.107 | 0.132
NCI-H23 | 0.246 | 0.131 | 0.116 | 0.13 | 0.637 | 0.185 | 0.0983 | 0.106 | 0.445 | 0.156 | 0.113 | 0.117 | 0.714 | 0.227 | 0.132 | 0.1 | 0.304 | 0.167 | 0.0992 | 0.103
NCI-H1395 | 0.782 | 0.301 | 0.24 | 0.239 |  |  |  |  | 0.505 | 0.231 | 0.213 | 0.26 | 0.631 | 0.311 | 0.251 | 0.215 | 0.596 | 0.311 | 0.248 | 0.248
